Patent US20100227827A1, “METHOD OF INCREASING TRYPTOPHAN AND NICOTINAMIDE LEVELS IN VIVO” (priority 2006, published 2010)
Where two headings read alike, the source gives them in different places.

Key:
[1] = Urinary quinic acid, hippuric acid, tryptophan and nicotinamide by HPLC; type: in vivo, human; conditions: for urinary tryptophan at start of treatment / urinary nicotinamide at start of treatment: 8 May 2006 and 15 May 2006; for dose excreted at 9 month: urine, oral, read-out: Dose recovery (excrete/dose), excreted as unmetabolized quinic acid
Method: Blood samples were collected by venal puncture using vacutainers (red top, 10 ml) usually in the morning (a.m.) after 12 hours of fasting. Serum was separated from the blood clot after setting 2 hr on the bench top before centrifugation for 10 min at 1500×g. Sera prepared in this manner were stored at +4° C. until biochemical analysis usually within 1-30 days of collection. Urine samples were collected as a random 50 ml sample in the A.M. during the treatment and follow-up (after treatment for 8 months) periods. Urine was spun at 5000×g for 15 min and the supernatant stored at +4° C. until analyzed within 1 month of collection. After the first analysis all samples were further stored at −20° C. and used for repeat determinations over time. Trial design for the clinical evaluation of Aqua Bimini™ (quinic acid ammonium chelate) was carried out at Lund University beginning Apr. 28, 2006. […] Repeat serum and urine samples were collected throughout the trial period and then pooled into groups for analysis as 6 weeks before (baseline), 4 weeks of intervention (treatment, 36 days) and 8 months dry-out (no treatment). Urine samples were mixed with 1:2:4 v/v/v of: aqueous urine:95% ethanol:ethyl acetate for 10 min with vigorous shaking. The ethyl acetate layer was allowed to separate with gravity at room temperature, and then it was removed with a pipette and evaporated with an air stream to dryness in a vacuum hood. In this manner 1-2 ml of urine were reconstituted in 0.2 ml water or ethanol which represented a 5-10 fold increase in concentration. […] The urine samples were diluted 1:2:4 v/v/v with ethanol and ethyl acetate, and then the ethyl acetate fraction dried, solubilized in 0.2 ml water and used for HPLC analyses with 20 μl injections directly onto a C18 80×4.6 mm. The mobile phase was 0.2% trifluoroacetic (TFA):methanol:acetonitrile (70:30):water in a ratio 8:8:84 (v/v/v). The UV detector was set at 215 nm, and quinic acid eluted with a retention of 0.97-1.05 min and nicotinamide at 2.6-2.9 min. The detection limit in urine was about 1.5 mg/ml for quinic acid and for nicotinamide it was 0.015 mg/ml. […] The urine samples were diluted 1:2:4 v/v/v with ethanol and ethyl acetate, and then the ethyl acetate fraction dried, solubilized in 0.2 ml water and used for HPLC analyses with 20 μl injections directly onto a C18 80×4.6 mm. The mobile phase was 70:30 v/v, 0.2% TFA: 30% methanol. The UV detector was set at 225 nm. Tryptophan eluted after 5.2-5.4 min and hippuric acid after 3.1-3.4 min.

[2] = Repeat daily oral doses, quinic acid analyzed in serum by HPLC; type: in vivo, human
Method: Trial design for the clinical evaluation of Aqua Bimini™ (quinic acid ammonium chelate) was carried out at Lund University beginning Apr. 28, 2006. Two Subjects identity code protected as HL and RP received Aqua Bimini™ at 1500 mg/day and 3000 mg/day, respectively for 4 consecutive weeks (36 days). Repeat serum and urine samples were collected throughout the trial period and then pooled into groups for analysis as 6 weeks before (baseline), 4 weeks of intervention (treatment, 36 days) and 8 months dry-out (no treatment).
Two human volunteers subject two and subject one ingested daily doses of 1500 mg per day or 3000 mg per day and serum samples collected on May 8, May 15, May 18, May 23, May 29, and June 1.
These samples were each analyzed for quinic acid content in 200 μl serum after precipitation with 2 M trichloroacetic acid (TCA). The column used for these experiments was a C18 80×4.6 mm. The mobile phase was 0.2% trifluoroacetic (TFA):methanol 85:15. The UV detector was set at 215 nm and quinic acid eluted with a retention time of 1.40-1.5 min. The sensitivity for detection of this method was about 1 mg quinic acid /ml serum or a detectable dose of 70 mg/kg in humans not 21 to 42 mg/kg as used herein in this study. Thus this protocol could assess if the quinic acid levels in serum would accumulate after repeated daily administration during a period of 4-5 weeks.

[3] = Molar ratio from neutralization of free organic acid with hydroxides; type: physicochemical; conditions: salt or chelate; listed as Quinic acid ammonium salt
Method: Determination of salts and chelates of some naturally occurring polyhydroxylated and polycarboxylated organic acids are provided in Table 1. Experimental molar ratios were calculated from neutralization to pH=7.5 of free protonated organic acid (H^+) with sodium, potassium or ammonium hydroxides.

[4] = 3000 mg/day for 36 days (printed HL)
[5] = subject one (3000 mg/day), 1st 4 months no treatment, n=11
[6] = subject one (3000 mg/day), 2nd 4 months no treatment, n=3
[7] = subject one, 3000 mg/day QA (30 days), n=5
[8] = subject two (1500 mg/day), 1st 4 months no treatment, n=6
[9] = subject two (1500 mg/day), 2nd 4 months no treatment, n=6
[10] = subject two, 1500 mg/day QA (30 days), n=5

Dose recovery (excrete/dose), excreted as unmetabolized quinic acid ([1]; Subject 3000 mg/day, 9 month evaluation period): 59%
Ratio of total dose excreted in 9 months ([1]; human, in vivo, 9 months): 2.86
remaining dose absorbed as hippuric acid or further metabolized to other compounds ([1]; human, in vivo, 1 day): 29.7%
dose excreted at 9 month ([1]; human, 1500 mg/day, Subject 1500 mg/day, 9 month evaluation period): 40%
dose excreted at 9 month ([1]; human, 3000 mg/day, Subject 3000 mg/day, 9 month evaluation period): 56%
quinic acid in blood serum samples ([2]; 1500 mg or 3000 mg daily oral, 6 samples day 10 to day 37): No quinic acid was found
quinic acid in human serum ([2]; efficacious dose 25 mg/kg in humans, HPLC detection limit 1 mg/kg): no quinic acid found
Determination of structure existing in water [3]: chelate
SMILES: O=C(O)[C@]1(O)C[C@@H](O)[C@@H](O)[C@H](O)C1 [Aqua Bimini™, quinic acid ammonium chelate]
urinary tryptophan at start of treatment ([1]; 3000 mg/day (printed HL)): 9.32 µM
Increase in urinary quinic acid (QA) metabolite (ratio), tryptophan [1, 4]: 2.44
Increase tryptophan/increase thiols [1, 4]: 1.94
average urinary tryptophan during treatment + follow-up [1, 4]: 22.7 µM
Increase in urinary quinic acid (QA) metabolite (ratio), nicotinamide ([1]; HL 1500 mg/day for 36 days): 2.83
Increase in urinary quinic acid (QA) metabolite (ratio), tryptophan ([1]; HL 1500 mg/day for 36 days): 0.99
Increase nicotinamide/increase thiols ([1]; HL 1500 mg/day for 36 days): 2.32
Increase tryptophan/increase thiols ([1]; HL 1500 mg/day for 36 days): 0.82
average urinary nicotinamide during treatment + follow-up ([1]; HL 1500 mg/day for 36 days): 215 µM
average urinary tryptophan during treatment + follow-up ([1]; HL 1500 mg/day for 36 days): 21.3 µM
urinary nicotinamide at start of treatment ([1]; HL 1500 mg/day): 76 µM
urinary tryptophan at start of treatment ([1]; HL 1500 mg/day): 19.3 µM
Increase in urinary quinic acid (QA) metabolite (ratio), nicotinamide ([1]; RP 3000 mg/day for 36 days): 5.41
Increase nicotinamide/increase thiols ([1]; RP 3000 mg/day for 36 days): 4.29
average urinary nicotinamide during treatment + follow-up ([1]; RP 3000 mg/day for 36 days): 57.9 µM
urinary nicotinamide at start of treatment ([1]; RP 3000 mg/day): 10.7 µM
Urinary excretion daily sample, Tryptophan (avg) ([1]; oral human dose 21-42 mg/kg (1500-3000 mg/day), 33 days, average over 9 months of RP and HL): Tryptophan. = 4.2 mg/liter^b
urinary Nicotinamide [1, 5]: 71 ± 44 µM
urinary Tryptophan [1, 5]: 22 ± 7 µM
urinary Nicotinamide [1, 6]: 71 ± 63 µM
urinary Tryptophan [1, 6]: 19 ± 6 µM
urinary Nicotinamide ([1]; subject one (3000 mg/day), total sample mean, 9 months, n=19): 58 ± 46 µM
urinary Tryptophan ([1]; subject one (3000 mg/day), total sample mean, 9 months, n=19, listed as QA): 19 ± 7 µM
urinary Nicotinamide [1, 7]: 21 ± 16 µM
urinary Tryptophan [1, 7]: 13 ± 5 µM
urinary Nicotinamide [1, 8]: 453 ± 139 µM
urinary Tryptophan [1, 8]: 30 ± 8 µM
urinary Nicotinamide [1, 9]: 24 ± 7 µM
urinary Tryptophan [1, 9]: 17 ± 7 µM
urinary Nicotinamide ([1]; subject two (1500 mg/day), total sample mean, 9 months, n=17): 216 ± 210 µM
urinary Tryptophan ([1]; subject two (1500 mg/day), total sample mean, 9 months, n=17, listed as QA): 22 ± 9 µM
urinary Nicotinamide [1, 10]: 163 ± 91 µM
urinary Tryptophan [1, 10]: 18 ± 5 µM
ratio of nicotinamide/thiols ratios, 3000 versus 1500 mg per day ([1]; theoretical dose ratio 2.0): 1.85
ratio of tryptophan/thiols ratios, 3000 versus 1500 mg per day ([1]; theoretical dose ratio 2.0): 2.4
